Experimental data published in paper PMC6222450, “Computer-Aided Studies for Novel Arylhydantoin 1,3,5-Triazine Derivatives as 5-HT6 Serotonin Receptor Ligands with Antidepressive-Like, Anxiolytic and Antiobesity Action In Vivo” (Molecules : A Journal of Synthetic Chemistry and Natural …, 2018).

Legend:
[1] = molecular target: T1, 5-HT2A (Homo sapiens, UniProt P28223); test: Radioligand binding assay, 5-HT2A, [3H]-Ketanserin; details: human receptor stably expressed in HEK-293 cells
T1 construct: expressed in transfected cells; host or cells: HEK-293
T1 sequence (P28223 whole entry): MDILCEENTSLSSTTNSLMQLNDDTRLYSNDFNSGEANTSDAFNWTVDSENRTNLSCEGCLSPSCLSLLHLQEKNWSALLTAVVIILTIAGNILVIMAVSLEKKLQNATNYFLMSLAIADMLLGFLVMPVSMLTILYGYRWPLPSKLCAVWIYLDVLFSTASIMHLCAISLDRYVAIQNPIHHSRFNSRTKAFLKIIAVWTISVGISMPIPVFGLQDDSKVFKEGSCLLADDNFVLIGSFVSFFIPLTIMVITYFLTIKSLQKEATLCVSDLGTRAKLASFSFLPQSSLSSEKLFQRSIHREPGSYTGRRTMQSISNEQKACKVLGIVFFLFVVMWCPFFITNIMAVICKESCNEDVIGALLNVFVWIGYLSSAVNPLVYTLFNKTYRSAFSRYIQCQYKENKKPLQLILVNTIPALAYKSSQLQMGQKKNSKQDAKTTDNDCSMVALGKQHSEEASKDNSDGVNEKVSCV

[2] = molecular target: T2, 5-HT1A (Homo sapiens, UniProt P08908); test: Radioligand binding assay, 5-HT1A, [3H]-8-OH-DPAT; details: human receptor stably expressed in HEK-293 cells
T2 construct: expressed in transfected cells; host or cells: HEK-293
T2 sequence (P08908 1-422): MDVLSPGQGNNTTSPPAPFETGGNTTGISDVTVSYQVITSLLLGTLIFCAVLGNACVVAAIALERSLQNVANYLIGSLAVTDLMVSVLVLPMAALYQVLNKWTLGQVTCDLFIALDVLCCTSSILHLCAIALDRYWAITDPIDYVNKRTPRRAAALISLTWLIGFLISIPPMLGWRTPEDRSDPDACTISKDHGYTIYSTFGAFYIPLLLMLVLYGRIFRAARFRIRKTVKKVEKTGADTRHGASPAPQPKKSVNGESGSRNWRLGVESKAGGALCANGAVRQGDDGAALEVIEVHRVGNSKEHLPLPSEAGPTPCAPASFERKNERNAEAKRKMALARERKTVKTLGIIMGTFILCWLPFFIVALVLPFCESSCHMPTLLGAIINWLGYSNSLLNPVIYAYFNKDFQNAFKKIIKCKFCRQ

[3] = molecular target: T3, dopaminergic D2LR (Homo sapiens, UniProt P14416); test: Radioligand binding assay, D2LR, [3H]-Raclopride; details: human D2L receptor stably expressed in HEK-293 cells; read-out: Ki D2 [3H]-Raclopride
T3 construct: expressed in transfected cells; host or cells: HEK-293
T3 sequence (P14416 whole entry): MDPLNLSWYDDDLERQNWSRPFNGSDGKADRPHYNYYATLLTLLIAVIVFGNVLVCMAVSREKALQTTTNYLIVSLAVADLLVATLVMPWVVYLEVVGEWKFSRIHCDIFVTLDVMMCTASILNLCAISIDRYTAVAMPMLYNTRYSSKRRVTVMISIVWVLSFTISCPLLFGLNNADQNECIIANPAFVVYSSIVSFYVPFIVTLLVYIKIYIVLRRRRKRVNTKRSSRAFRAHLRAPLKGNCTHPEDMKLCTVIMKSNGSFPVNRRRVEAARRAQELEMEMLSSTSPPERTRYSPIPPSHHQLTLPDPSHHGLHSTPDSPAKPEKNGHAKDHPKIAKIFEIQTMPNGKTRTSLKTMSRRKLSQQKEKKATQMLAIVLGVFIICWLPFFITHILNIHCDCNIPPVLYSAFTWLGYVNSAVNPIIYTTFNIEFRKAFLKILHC

[4] = molecular target: T4, human serotonin 5-HT6R (Homo sapiens, UniProt P50406); test: Radioligand binding assay, 5-HT6R, [3H]-LSD displacement; details: human receptor stably expressed in HEK-293 cells; mean of at least two independent experiments; read-out: Ki 5-HT6 [3H]-LSD
T4 construct: expressed in transfected cells; host or cells: HEK-293
T4 sequence (P50406 whole entry): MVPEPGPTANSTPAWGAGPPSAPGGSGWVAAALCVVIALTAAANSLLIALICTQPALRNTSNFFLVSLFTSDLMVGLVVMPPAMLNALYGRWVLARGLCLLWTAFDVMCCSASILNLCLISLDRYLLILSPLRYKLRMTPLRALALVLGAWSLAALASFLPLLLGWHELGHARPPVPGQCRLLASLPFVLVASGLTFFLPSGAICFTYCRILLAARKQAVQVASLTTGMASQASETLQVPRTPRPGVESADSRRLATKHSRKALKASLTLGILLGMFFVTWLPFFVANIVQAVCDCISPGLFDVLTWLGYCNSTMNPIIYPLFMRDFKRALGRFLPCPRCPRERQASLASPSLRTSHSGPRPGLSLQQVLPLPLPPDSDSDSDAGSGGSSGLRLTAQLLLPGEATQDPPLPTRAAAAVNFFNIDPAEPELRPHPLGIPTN
Protocol: Five selective radioligands were employed (Table 1).
Radioligand binding assays were used to determine the affinity of the synthesized compounds for human serotonin 5-HT6R, which were stably expressed in HEK-293 cells. […] Each compound was tested in triplicate at 7 to 8 different concentrations (10^−11 to 10^−4 M). The inhibition constants (Ki) were calculated using the Cheng–Prusoff equation [40], and the results are expressed as the mean of at least two independent experiments.

[5] = molecular target: T5, 5-HT7bR (Homo sapiens, UniProt P34969); test: Radioligand binding assay, 5-HT7bR, [3H]-5-CT; details: human 5-HT7b receptor stably expressed in HEK-293 cells; read-out: Ki 5-HT7 [3H]-5-CT
T5 construct: expressed in transfected cells; host or cells: HEK-293
T5 sequence (P34969 1-432 limits assumed): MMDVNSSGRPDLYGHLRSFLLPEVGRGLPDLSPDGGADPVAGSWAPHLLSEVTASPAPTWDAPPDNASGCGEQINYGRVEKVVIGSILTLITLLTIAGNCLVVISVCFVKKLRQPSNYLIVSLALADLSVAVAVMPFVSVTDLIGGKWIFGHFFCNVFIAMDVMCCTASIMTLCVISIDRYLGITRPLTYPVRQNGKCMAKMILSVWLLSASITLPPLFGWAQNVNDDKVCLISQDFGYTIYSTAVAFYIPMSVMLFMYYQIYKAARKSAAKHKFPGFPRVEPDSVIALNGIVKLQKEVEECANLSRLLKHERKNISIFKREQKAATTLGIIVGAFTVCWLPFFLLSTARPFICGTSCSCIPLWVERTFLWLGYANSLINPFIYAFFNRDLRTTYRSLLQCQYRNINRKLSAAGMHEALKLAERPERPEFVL

| SMILES | Ki [1] | Ki [2] | Ki [3] | Ki [4] | Ki [5] |
| --- | --- | --- | --- | --- | --- |
| CN1CCN(c2nc(N)nc(CN3C(=O)N(Cc4cccc(Br)c4)C(C)(C)C3=O)n2)CC1 [Compound 15, 1-(3-Bromobenzyl)-3-((4-amino-6-(4-methylpiperazin-1-yl)-1,3,5-triazin-2-yl)methyl)-5,5-dimethylimidazolidine-2,4-dione] | 1.33 µM | 12.9 µM | 6.68 µM | 0.57 µM | 0.571 µM |
| Cc1cccc(CN2C(=O)N(Cc3nc(N)nc(N4CCN(C)CC4)n3)C(=O)C2(C)C)c1 [Compound 17, 1-(3-Methylbenzyl)-3-((4-amino-6-(4-methylpiperazin-1-yl)-1,3,5-triazin-2-yl)methyl)-5,5-dimethylimidazolidine-2,4-dione] | 0.817 µM | 17 µM | 5.21 µM | 0.895 µM | 0.42 µM |
| CN1CCN(c2nc(N)nc(CN3C(=O)NC(C)(c4cc(Cl)ccc4Cl)C3=O)n2)CC1 (stereo not shown) [Compound 21, 3-((4-Amino-6-(4-methylpiperazin-1-yl)-1,3,5-triazin-2-yl)methyl)-5-(2,5-dichlorophenyl)-5-methylimidazolidine-2,4-dione] | 11.1 µM | 26.2 µM | 11.5 µM | 0.403 µM | 1.56 µM |
| CN1CCN(c2nc(N)nc(CN3C(=O)N(Cc4ccc(Cl)cc4Cl)C(C)(C)C3=O)n2)CC1 [Compound 12, 1-(2,4-Dichlorobenzyl)-3-((4-amino-6-(4-methylpiperazin-1-yl)-1,3,5-triazin-2-yl)methyl)-5,5-dimethylimidazolidine-2,4-dione] | 3.59 µM | 7.69 µM | 0.681 µM | 0.205 µM | 1.12 µM |
| CN1CCN(c2nc(N)nc(CN3C(=O)NC(C)(C)C3=O)n2)CC1 [Compound 4] |  |  | 22.3 µM | 0.427 µM | 35.8 µM |
| Cc1ccc(C2(C)NC(=O)N(Cc3nc(N)nc(N4CCN(C)CC4)n3)C2=O)cc1 (stereo not shown) [Compound 24, 3-((4-Amino-6-(4-methylpiperazin-1-yl)-1,3,5-triazin-2-yl)methyl)-5-(4-methylphenyl)-5-methylimidazolidine-2,4-dione] | 24.4 µM | 22.3 µM | 23.3 µM | 0.667 µM | 0.564 µM |
| CN1CCN(c2nc(N)nc(CN3C(=O)NC(C)(c4ccccc4)C3=O)n2)CC1 (stereo not shown) [Compound 19, 3-((4-Amino-6-(4-methylpiperazin-1-yl)-1,3,5-triazin-2-yl)methyl)-5-methyl-5-phenylimidazolidine-2,4-dione] | 12.1 µM | 31.6 µM | 41 µM | 0.726 µM | 1.1 µM |
| CN1CCN(c2nc(N)nc(CN3C(=O)NC(C)(c4ccc(Cl)cc4Cl)C3=O)n2)CC1 (stereo not shown) [Compound 22, 3-((4-Amino-6-(4-methylpiperazin-1-yl)-1,3,5-triazin-2-yl)methyl)-5-(2,4-dichlorophenyl)-5-methylimidazolidine-2,4-dione] | 10.8 µM | 14 µM | 15.1 µM | 0.457 µM | 10.1 µM |
| CN1CCN(c2nc(N)nc(CN3C(=O)N(Cc4cc(Cl)ccc4Cl)C(C)(C)C3=O)n2)CC1 [Compound 11, 1-(2,5-Dichlorobenzyl)-3-((4-amino-6-(4-methylpiperazin-1-yl)-1,3,5-triazin-2-yl)methyl)-5,5-dimethylimidazolidine-2,4-dione] | 0.809 µM | 4.16 µM | 2.87 µM | 0.597 µM | 0.279 µM |
| CN1CCN(c2nc(N)nc(CN3C(=O)N(Cc4ccc(F)cc4)C(C)(C)C3=O)n2)CC1 [Compound 13, 1-(4-Fluorobenzyl)-3-((4-amino-6-(4-methylpiperazin-1-yl)-1,3,5-triazin-2-yl)methyl)-5,5-dimethylimidazolidine-2,4-dione] | 3.55 µM | 48.4 µM | 6.56 µM | 0.663 µM | 0.953 µM |
| CN1CCN(c2nc(N)nc(CN3C(=O)N(Cc4ccccc4)C(C)(C)C3=O)n2)CC1 [Compound 9, 3-((4-Amino-6-(4-methylpiperazin-1-yl)-1,3,5-triazin-2-yl)methyl)-1-benzyl-5,5-dimethylimidazolidine-2,4-dione] | 1.6 µM | 42.6 µM | 8.78 µM | 0.592 µM | 0.35 µM |
| CN1CCN(c2nc(N)nc(CN3C(=O)N(Cc4cccc(Cl)c4)C(C)(C)C3=O)n2)CC1 [Compound 10, 1-(3-Chlorobenzyl)-3-((4-amino-6-(4-methylpiperazin-1-yl)-1,3,5-triazin-2-yl)methyl)-5,5-dimethylimidazolidine-2,4-dione] | 0.328 µM | 13.6 µM | 4.63 µM | 0.271 µM | 0.159 µM |
| CN1CCN(c2nc(N)nc(CN3C(=O)NC(C)(c4cccc(Cl)c4)C3=O)n2)CC1 (stereo not shown) [Compound 20, 3-((4-Amino-6-(4-methylpiperazin-1-yl)-1,3,5-triazin-2-yl)methyl)-5-(3-chlorophenyl)-5-methylimidazolidine-2,4-dione] | 7.4 µM | 4.1 µM | 16.8 µM | 0.418 µM | 0.791 µM |
| CN1CCN(c2nc(N)nc(CN3C(=O)N(Cc4cccc(F)c4)C(C)(C)C3=O)n2)CC1 [Compound 14, 1-(3-Fluorobenzyl)-3-((4-amino-6-(4-methylpiperazin-1-yl)-1,3,5-triazin-2-yl)methyl)-5,5-dimethylimidazolidine-2,4-dione] | 0.239 µM | 37.1 µM | 6.58 µM | 0.447 µM | 0.088 µM |
| COc1cccc(CN2C(=O)N(Cc3nc(N)nc(N4CCN(C)CC4)n3)C(=O)C2(C)C)c1 [Compound 16, 1-(3-Methoxybenzyl)-3-((4-amino-6-(4-methylpiperazin-1-yl)-1,3,5-triazin-2-yl)methyl)-5,5-dimethylimidazolidine-2,4-dione] | 2.04 µM | 23.9 µM | 15.5 µM | 0.692 µM | 3.59 µM |
